One compound from publication PMC11589570, “Critical assessment of LC3/GABARAP ligands used for degrader development and ligandability of LC3/GABARAP binding pockets” (Nature Communications, 2024) can be followed below.

Where “and” joins values, the source holds several entries; their conditions need not be identical. Equal entries are not always repeated.

Holding throughout (type): binding
For one assay, the target named is LC3B (Homo sapiens, UniProt Q9GZQ8). Description: FP assay with Cy5-labelled p62 LIR tracer (protein titration and tracer displacement). As to conditions: replicates, listed as TH152.
The target of assay [1] is T1, LC3A (Homo sapiens, UniProt Q9H492). The description is as above. As to conditions: for FP assay result (normalised FP signal): replicates, listed as TH152.
The target of assay [2] is T1, LC3A. Description: Isothermal titration calorimetry (ITC). Particulars: LC3A; read-out: KD (ITC). An excerpt:
To minimize nonspecific dilution heat effects, DMSO concentrations in the protein and compound samples were matched. […] For this protocol, the chamber was pre-equilibrated with the protein, and the test compounds were titrated while continuously measuring the rate of exothermic heat evolution. The heat of binding was integrated, corrected, and fitted to an independent single-binding site model based on the manufacturer’s instructions, from which thermodynamic parameters (ΔH and TΔS), equilibrium association and dissociation constants (KA and KD, respectively), and stoichiometry (n) were calculated using TA Instruments NanoAnalyze software.

As usually defined, the Kd is a measure of binding affinity in units of concentration. Consider `CCCCCCC(Sc1nc(Cl)cc(Nc2nc(-c3ccc(C(=O)O)cc3)cs2)n1)C(=O)O` (stereo not drawn) [compound 21], for which the “FP assay result (normalised FP signal)” value on LC3B (log10 concentration [M] -3.5) is 5.227 and 1.651 and 6.602 and 11.5543; at LC3B (log10 concentration [M] -4), 15.956 and 18.4319 and 23.3838 and 18.9821; at LC3B (log10 concentration [M] -4.5) it was 38.7895 and 39.3398 and 43.1912 and 47.3177; on LC3B (log10 concentration [M] -5) it was 78.6795 and 79.2297 and 89.1334 and 88.033; on LC3B (log10 concentration [M] -5.5), 90.5089 and 85.8322 and 98.2118 and 94.9106; on LC3B (log10 concentration [M] -6) it was 92.7098 and 95.4608 and 102.063 and 101.238. The “FP assay result (normalised FP signal)” value is 91.0591 and 89.9587 and 97.9367 and 96.8363 at LC3B (log10 concentration [M] -6.5); 91.6094 and 98.762 and 103.439 and 102.063 on LC3B (log10 concentration [M] -7); 90.2338 and 98.4869 and 99.3122 and 100.138 at LC3B (log10 concentration [M] -7.5); 98.762 and 98.2118 and 100.413 and 102.613 on LC3B (log10 concentration [M] -8); 94.9106 and 100.413 (2×) and 103.439 at LC3B (log10 concentration [M] -8.5); 16.9522 and 16.2308 and 9.017 and 3.246 at LC3A [1] (log10 concentration [M] -3.5). Also, the “FP assay result (normalised FP signal)” value at LC3A [1] (log10 concentration [M] -4) is 23.8052 and 27.7728 and 15.8702 and 10.8206; at LC3A [1] (log10 concentration [M] -4.5) it was 40.3968 and 45.4463 and 36.0685 and 29.5762; on LC3A [1] (log10 concentration [M] -5), 79.7115 and 85.4824 and 71.4157 and 74.3012; on LC3A [1] (log10 concentration [M] -5.5), 90.532 and 94.4995 and 92.3354 (2×); at LC3A [1] (log10 concentration [M] -6) it was 102.435 and 103.156 and 95.2209 and 98.4671; at LC3A [1] (log10 concentration [M] -6.5), 94.8602 and 102.795 and 92.3354 and 90.8927. For the same compound, the “FP assay result (normalised FP signal)” value is 102.074 and 100.271 and 99.1885 and 98.4671 at LC3A [1] (log10 concentration [M] -7); 103.877 and 100.271 and 96.6637 and 94.4995 on LC3A [1] (log10 concentration [M] -7.5); 101.353 (2×) and 90.1713 and 94.4995 at LC3A [1] (log10 concentration [M] -8); 95.9423 and 95.2209 and 93.4175 and 99.9098 on LC3A [1] (log10 concentration [M] -8.5). In addition, the “% tracer bound @LC3A” value on LC3A [1] (LC3A tracer displacement, normalized on p62-LIR positive control) was 26%. The Kd on LC3A [2] turned out to be 2 µM.
